Ki and IC50 data for 31 molecules are collected here from ChEMBL document CHEMBL4616621, “Pro-apoptotic carboxamide analogues of natural fislatifolic acid targeting Mcl-1 and Bcl-2” (Bioorg Med Chem Lett, 2020).

The structures appear in SMILES notation.

For test [1], the target named is Induced myeloid leukemia cell differentiation protein Mcl-1 (Homo sapiens, UniProt Q07820). In words: Inhibition of Mcl-1 (unknown origin)/Bid interaction preincubated for 5 mins followed by fluorescein-labeled peptide addition and measured after 10 mins by fluorescein-labeled peptide displacement based fluorescence polarization assay. On the technique in general: Polarisation of emitted light reports the rotation of a fluorescent probe.
Chain of Induced myeloid leukemia cell differentiation protein Mcl-1 (Q07820 whole entry): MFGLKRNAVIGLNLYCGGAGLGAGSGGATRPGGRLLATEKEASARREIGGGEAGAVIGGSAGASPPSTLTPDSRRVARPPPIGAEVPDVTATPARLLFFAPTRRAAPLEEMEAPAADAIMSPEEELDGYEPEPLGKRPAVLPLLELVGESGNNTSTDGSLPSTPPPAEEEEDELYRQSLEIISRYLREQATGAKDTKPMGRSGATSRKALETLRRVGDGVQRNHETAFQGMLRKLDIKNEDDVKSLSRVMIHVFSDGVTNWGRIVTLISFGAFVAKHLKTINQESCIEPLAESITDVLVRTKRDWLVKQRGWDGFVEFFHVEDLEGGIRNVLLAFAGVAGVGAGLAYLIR

For the next test, the system named is A549. In words: Antiproliferative activity against human A549 cells assessed as cell death. It is filed as functional, cell-based.
A further test relates to MCF7. Put plainly: Antiproliferative activity against human MCF7 cells assessed as cell death. In kind it is functional, cell-based.
Test [2] has as its target Apoptosis regulator Bcl-2 (Homo sapiens, UniProt P10415). Put plainly: Inhibition of Bcl2 (unknown origin)/Bim interaction preincubated for 5 mins followed by fluorescein-labeled peptide addition and measured after 10 mins by fluorescein-labeled peptide displacement based fluorescence polarization assay.
The target of a further test is Bcl-2-like protein 1 (Homo sapiens, UniProt Q07817). Put plainly: Inhibition of Bcl-xL (unknown origin)/Bak interaction preincubated for 5 mins followed by fluorescein-labeled peptide addition and measured after 10 mins by fluorescein-labeled peptide displacement based fluorescence polarization assay.
Chain of Bcl-2-like protein 1 (Q07817 whole entry): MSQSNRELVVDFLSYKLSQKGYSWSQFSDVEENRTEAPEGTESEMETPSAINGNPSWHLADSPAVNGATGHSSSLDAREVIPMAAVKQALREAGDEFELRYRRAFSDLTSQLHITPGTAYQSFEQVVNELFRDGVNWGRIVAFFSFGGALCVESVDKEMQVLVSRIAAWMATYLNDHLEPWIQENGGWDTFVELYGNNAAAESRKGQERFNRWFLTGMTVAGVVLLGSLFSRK

Chain of Apoptosis regulator Bcl-2 (P10415 whole entry): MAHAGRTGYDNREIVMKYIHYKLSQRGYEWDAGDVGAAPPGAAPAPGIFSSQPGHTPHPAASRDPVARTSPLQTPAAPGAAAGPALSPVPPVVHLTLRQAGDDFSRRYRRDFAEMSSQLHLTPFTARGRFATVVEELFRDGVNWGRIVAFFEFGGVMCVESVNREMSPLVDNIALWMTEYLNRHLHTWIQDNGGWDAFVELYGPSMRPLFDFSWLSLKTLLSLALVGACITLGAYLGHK

Take `CC(C)=CCCC1=CC[C@H](C(=O)O)[C@@H](c2ccccc2)C1`: the figures for the Ki (in test [1]; in test [2]; on Bcl-2-like protein 1) were 4 µM, above 23 µM and 5.7 µM, respectively. For the same molecule, the IC50 (usually the concentration at which inhibition is half-maximal) in the test on A549 is 53.7 µM; in the test on MCF7, 64.3 µM.
On to `CC(C)=CCCC1=CC[C@H](C(=O)N(C)O)[C@@H](c2ccccc2)C1`, for which the values for the Ki (in test [1]; in test [2]; at Bcl-2-like protein 1) were 7.2 µM, 2.1 µM and above 23 µM, respectively.
The matching figures for `CC1(C)CCCC2=C1C[C@@H](C(=O)O)[C@H](c1ccccc1)C2`: above 33 µM, above 23 µM and above 23 µM.
With `CON(C)C(=O)[C@H]1CC2=C(CCCC2(C)C)C[C@@H]1c1ccccc1`, the Ki (usually the equilibrium dissociation constant of an inhibitor or competing ligand from its target) in test [1] was 18.9 µM; in test [2], above 23 µM; on Bcl-2-like protein 1 it was above 23 µM.
For `CC(C)=CCCC1=CC[C@@H](C(=O)NO)[C@H](c2ccccc2)C1`, the Ki in test [1] amounted to 8.2 µM; in test [2], 0.7 µM; at Bcl-2-like protein 1, 17.4 µM.
Turning to `CON(C)C(=O)[C@@H]1CC=C(CCC=C(C)C)C[C@H]1c1ccccc1`, the Ki in test [1] is above 33 µM; in test [2], above 23 µM; on Bcl-2-like protein 1, above 23 µM.
Take `CC(C)=CCCC1=CC[C@H](C(=O)NO)[C@@H](c2ccccc2)C1`: the values for the Ki (in test [1]; in test [2]; at Bcl-2-like protein 1) were 7.3 µM, 0.6 µM and 19 µM, respectively. Also, the figures for the IC50 in the test with A549 and with MCF7 were 71.7 µM and 72.3 µM, respectively.
Regarding `CC(C)=CCCC1=CC[C@H](C(=O)Nc2ccc(O)cc2)[C@@H](c2ccccc2)C1`, the Ki is above 33 µM in test [1], above 23 µM in test [2] and above 23 µM on Bcl-2-like protein 1. Besides, the IC50 with A549 was 66.8 µM; in the test with MCF7 it was 66.7 µM.
In the case of `CC(C)=CCCC1=CC[C@@H](C(=O)O)[C@H](c2ccccc2)C1`, the Ki was 8.6 µM in test [1], above 23 µM in test [2] and 9.6 µM at Bcl-2-like protein 1.
For the molecule `CON(C)C(=O)[C@@H]1CC2=C(CCCC2(C)C)C[C@H]1c1ccccc1`, the Ki was 15 µM in test [1], above 23 µM in test [2] and above 23 µM at Bcl-2-like protein 1.
On to `COc1ccc(NC(=O)[C@H]2CC=C(CCC=C(C)C)C[C@@H]2c2ccccc2)cc1`, for which the Ki in test [1] was above 33 µM; in test [2] it was above 23 µM; at Bcl-2-like protein 1, above 23 µM.
In the case of `COC(=O)c1ccc(NC(=O)[C@@H]2CC=C(CCC=C(C)C)C[C@H]2c2ccccc2)cc1`, the Ki in test [1] was above 33 µM; in test [2], above 23 µM; at Bcl-2-like protein 1, above 23 µM.
`CC(C)=CCCC1=CC[C@@H](C(=O)N(C)C)[C@H](c2ccccc2)C1`: the values for the Ki (in test [1]; in test [2]; on Bcl-2-like protein 1) were above 33 µM, above 23 µM and above 23 µM, respectively.
As to `CC(C)=CCCC1=CC[C@H](C(=O)Nc2ccc(C(=O)O)cc2)[C@@H](c2ccccc2)C1`, the Ki in test [1] was 8.5 µM; in test [2], above 23 µM; on Bcl-2-like protein 1 it was above 23 µM.
Regarding `CONC(=O)[C@H]1CC=C(CCC=C(C)C)C[C@@H]1c1ccccc1`, the figures for the Ki (in test [1]; in test [2]; on Bcl-2-like protein 1) were 16.6 µM, 2.4 µM and above 23 µM, respectively. The IC50 in the test on A549 is 42.2 µM; with MCF7 it was 45.2 µM.
Turning to `COC(=O)CCNC(=O)[C@H]1CC=C(CCC=C(C)C)C[C@@H]1c1ccccc1`, the values for the Ki (in test [1]; in test [2]; at Bcl-2-like protein 1) were 5.5 µM, 3.1 µM and above 23 µM, respectively. For the same molecule, the IC50 in the test on A549 worked out at 87.9 µM; with MCF7 it was 96.8 µM.
`CC(C)=CCCC1=CC[C@H](C(=O)N(C)C)[C@@H](c2ccccc2)C1`: the Ki in test [1] is 5.4 µM; in test [2], above 23 µM; at Bcl-2-like protein 1, 20.1 µM.
Taken in the same sequence, the figures for `CC(C)=CCCC1=CC[C@@H](C(N)=O)[C@H](c2ccccc2)C1` were above 33 µM, above 23 µM and above 23 µM.
In the case of `CON(C)C(=O)[C@H]1CC=C(CCC=C(C)C)C[C@@H]1c1ccccc1`, the Ki is 0.9 µM in test [1], 0.3 µM in test [2] and above 23 µM at Bcl-2-like protein 1. Besides, the IC50 was 31.2 µM in the test on A549 and 42.1 µM with MCF7.
On to `CC(C)=CCCC1=CC[C@@H](C(=O)Nc2ccc(O)cc2)[C@H](c2ccccc2)C1`, for which the Ki is above 33 µM in test [1], above 23 µM in test [2] and above 23 µM on Bcl-2-like protein 1.
On to `CC(C)=CCCC1=CC[C@H](C(=O)NCCC(=O)O)[C@@H](c2ccccc2)C1`, for which the inhibitory constant (Ki) in test [1] is above 33 µM; in test [2], above 23 µM; at Bcl-2-like protein 1, above 23 µM.
As for `COc1ccc(NC(=O)[C@@H]2CC=C(CCC=C(C)C)C[C@H]2c2ccccc2)cc1`, the results for the Ki (in test [1]; in test [2]; at Bcl-2-like protein 1) were above 33 µM, above 23 µM and above 23 µM, respectively.
As for `CONC(=O)[C@@H]1CC=C(CCC=C(C)C)C[C@H]1c1ccccc1`, the values for the Ki (in test [1]; in test [2]; at Bcl-2-like protein 1) were above 33 µM, 2.7 µM and above 23 µM, respectively.
With `CC(C)=CCCC1=CC[C@@H](C(=O)N(C)O)[C@H](c2ccccc2)C1`, the values for the Ki (in test [1]; in test [2]; at Bcl-2-like protein 1) were 9.2 µM, 2.3 µM and above 23 µM, respectively.
The matching figures for `CC1(C)CCCC2=C1C[C@H](C(=O)O)[C@@H](c1ccccc1)C2`: 9 µM, above 23 µM and above 23 µM.
On to `COC(=O)c1ccc(NC(=O)[C@H]2CC=C(CCC=C(C)C)C[C@@H]2c2ccccc2)cc1`, for which the figures for the Ki (in test [1]; in test [2]; on Bcl-2-like protein 1) were above 33 µM, above 23 µM and above 23 µM, respectively.
As for `COC(=O)CCNC(=O)[C@@H]1CC=C(CCC=C(C)C)C[C@H]1c1ccccc1`, the Ki is 15 µM in test [1], above 23 µM in test [2] and above 23 µM on Bcl-2-like protein 1.
Regarding `CC(C)=CCCC1=CC[C@@H](C(=O)NCCC(=O)O)[C@H](c2ccccc2)C1`, the figures for the Ki (in test [1]; in test [2]; on Bcl-2-like protein 1) were above 33 µM, above 23 µM and above 23 µM, respectively.
Regarding `CC(C)=CCCC1=CC[C@@H](C(=O)Nc2ccc(C(=O)O)cc2)[C@H](c2ccccc2)C1`, the results for the Ki (in test [1]; in test [2]; on Bcl-2-like protein 1) were above 33 µM, 2.2 µM and above 23 µM, respectively.
The matching figures for `CC(C)=CCCC1=CC[C@H](C(N)=O)[C@@H](c2ccccc2)C1`: above 33 µM, above 23 µM and above 23 µM.
For `CCCCCC[C@H]1C(=O)O[C@H](C)[C@H](NC(=O)c2cccc(NC=O)c2O)C(=O)O[C@@H](C)[C@@H]1OC(=O)CC(C)C` [ANTIMYCIN A], the IC50 with A549 is 6.5 µM.
